The text below walks through data of US20130273557A1 (priority 2010, published 2013).

For data set [1], the system named is leak conductance of urea-treated SMVs. Nature of the data set: Patch clamp recordings of urea-treated SMVs (F1 removed). Type of data set: biochemical, rat. The protocol:
F1 subunits were removed from SMVs by adapting previously-established methods. 60 mg SMV's/1 mL IB was treated with 1 mL of […] for 5 min. on ice, then centrifuged at 21000×g for 10 min. The pellet was washed 3× in IB (centrifugation at 21000×g for 10 min) and stored in IB.
Giga-ohm seals were formed on SMVs using pipettes and solutions as above. Peak membrane conductance was measured as described above.
A general note: Patch clamp records ionic current or voltage across a cell membrane.

The target of data set [2] is complex V (F1FO ATPase) (Rattus norvegicus, UniProt P19511+Q06647). Nature of the data set: ATP hydrolysis in SMVs, luciferin-luciferase assay. Type of data set: biochemical. Details: from tissue; host or cells: rat brain mitochondria, lubrol-insoluble submitochondrial vesicles (SMVs). As to conditions: in these assays (NADH and luciferase). An excerpt: 3 wells were used for each condition, repeated at least 3× on different SMV isolations.

In data set [3] the test system is calcium (Ca2+)-induced membrane currents in rat liver mitoplasts. As to conditions: cited from earlier work.
Data set [4] has as its system models of cell death and NDDs. The settings on record: non-dopaminergic mechanism; cited from earlier work.
Data set [5] relates to C2C12 cells. As to the method: (§1) Data are presented as a percentage of the vehicle-treated control ±SEM (n=10 wells at each concentration). […] Experiments commenced 18 hr. after addition of drug. […] Data are presented as a percentage of the vehicle-treated control±SEM (n=14-17 wells for each group).
(§2) The C2C12 mouse myoblast cell line (ATCC, Manasses, Va.) was cultured in Dulbecco's Modified Eagle Medium (DMEM; Gibco®; Carlsbad, Calif.) supplemented with 10% fetal bovine serum (FBS), 2 mM GlutaMax® and penicillin/streptomycin. Cells were maintained in 10% CO2 humidified at 37° C.
(§3) Cellular viability was measured using CellTiter-Blue® (Promega Corp., Madison, Wis.) in black-walled optical imaging multiwell plates, and cellular ATP was measured using the CellTiter-Glo® (Promega Corp., Madison, Wis.) luminescence assay in opaque-walled multiwell plates according to the manufacturer's protocol.

The subject of data set [6] is C2C12 cells. Type of data set: cell-based, mouse. As to the method: as §1, §2, §3
In data set [7] the test system is SH-SY5Y neuroblastoma cells. Nature of the data set: PSI-induced cell death in SH-SY5Y cells (CellTiter-Blue). The settings on record: 24 hr exposure to PSI at 150 or 650 nM. The protocol: Data shown represent mean±SEM. […] Bar graphs represent normalized mean±SEM. Cell viability was measured by CellTiter-Blue®; n=41-98 wells/condition.
Undifferentiated SH-SY5Y human neuroblastoma cells (ATCC, Manasses, Va.) were maintained in humidified 5% CO2 in 1:1 Ham's F12 nutrient mixture with Glutamax® and Minimal Essential Medium with L-glutamine (MEM-Alpha), 10% FBS, and 1% penicillin/streptomycin (Gibco® Invitrogen Corp., Carlsbad, Calif.).
as §3
On the technique in general: The colour change of resazurin is a common sign of viable cells or microbes.

The test system of data set [8] is C2C12 myoblasts. Nature of the data set: OCR and ECAR in C2C12 myoblasts (Seahorse). It is filed as cell-based, mouse. As to conditions: dexpramipexole 30 μM or PSI 30 nM alone, 18 hr. The protocol:
as §2
OCR and ECAR were measured with a Seahorse® XF24 Flux Analyzer (Seahorse Bioscience, Billerica, Mass.). For PSI experiments on C2C12 cells, basal values were assessed in non-buffered DMEM Assay Medium without glucose, glutamine or pyruvate, and supplemented with 25 mM glucose, 6 mM Glutamax®, and 1 mM sodium pyruvate. […] Succinate and ADP stocks were diluted to 10× concentrations in pre-warmed XF MAS buffer, pH 7.2. Using a Plate Prep Station (Seahorse Bioscience, Billerica, Mass.), cells were washed with 1 mL buffer and were brought to 607 μL with buffer. […] Raw basal OCR and ECAR values were normalized as a percent of the mean control value for each individual experiment. Normalized data from experiments were expressed as mean±SEM.

For data set [9], the target named is T1, intermediate- and large-conductance channel activity of PSI-mitochondria (Rattus norvegicus, UniProt P19511+Q06647).
T1 sequence (P19511 43-256): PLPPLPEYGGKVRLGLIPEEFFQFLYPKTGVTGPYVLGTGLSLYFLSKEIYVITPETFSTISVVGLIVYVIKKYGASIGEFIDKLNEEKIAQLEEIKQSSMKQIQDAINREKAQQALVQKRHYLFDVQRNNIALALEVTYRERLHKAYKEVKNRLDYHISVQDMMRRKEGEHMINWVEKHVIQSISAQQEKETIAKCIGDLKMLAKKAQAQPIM
T1 sequence (Q06647 24-213): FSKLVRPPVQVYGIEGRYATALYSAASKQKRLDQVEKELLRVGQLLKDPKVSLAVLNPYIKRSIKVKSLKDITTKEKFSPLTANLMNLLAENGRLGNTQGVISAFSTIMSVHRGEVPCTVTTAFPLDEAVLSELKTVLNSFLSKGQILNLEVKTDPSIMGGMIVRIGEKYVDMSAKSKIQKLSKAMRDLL
The experiment in a line: Patch clamp recording of brain-derived PSI-mitochondria. Type of data set: biochemical. As to conditions: subcortex mitochondria vs control animals. As to the method: Isolation of Brain-derived Mitochondria. Standard techniques were adapted for isolating brain-derived mitochondria. Mitochondria were stored in isolation buffer (IB) at −80° C. For PSI-mitochondria, male Sprague-Dawley rats (6 wo, ˜200 gm, 3-6 rats/group/condition, at least 2 different preparations/experimental paradigm) were injected with the ubiquitin proteasome inhibitor Z-Ile-Glu(OtBu)-Ala-Leu-al (PSI; Peptides International Inc, Kentucky, USA; s.c. every other day for 1 or 2 weeks; 6.0 mg/kg PSI in DMSO, or with DMSO, 200 μL/rat), and mitochondria isolated and stored as above.
Reagents were rapidly perfused into the recording chamber.

The subject of data set [10] is digitonin-treated cortical neurons. The experiment in a line: ATP production following ADP pulse in digitonin-treated cortical neurons. Type of data set: cell-based, rat. As to conditions: dexpramipexole 30 μM.

`Nc1ncnc2c1ncn2[C@@H]1O[C@H](COP(=O)(O)OP(=O)(O)OP(=O)(O)O)[C@@H](O)[C@H]1O` [ATP, adenosine triphosphate, reference compound]: the “leak conductance after removal of F1” value in data set [1] is recorded as “still very effectively decreased the leak conductance”.

Regarding `CC[C@H]1/C=C/C=C/C[C@@H](C)[C@H](O)[C@@](C)(O)C(=O)[C@@H](C)[C@H](O)[C@@H](C)C(=O)[C@@H](C)[C@H](O)[C@@H](C)/C=C/C(=O)O[C@@H]2[C@H](C)[C@H](CC1)O[C@]1(CC[C@H](C)[C@H](C[C@@H](C)O)O1)[C@H]2C` [oligomycin, reference compound], in data set [2], the ATP hydrolysis result is recorded as “effectively inhibited ATP hydrolysis”.

For the compound `CCCN[C@H]1CCc2nc(N)sc2C1` [pramipexole, (6S)-4,5,6,7-tetrahydro-N6-propyl-2,6-benzothiazole-diamine, reference compound], in [3], the “Ca2+-induced membrane currents” value was “inhibit”. Also, the protective concentrations in [4] is no less than 10 µM.

In the case of “Z-Ile-Glu(OtBu)-Ala-Leu-H [PSI, reference compound]”, in data set [5] (18 hr exposure), the “concentrations reducing cellular viability” value was greater than 60 nM. Besides, the cell viability result in data set [5] (dexpramipexole 30 μM or PSI 30 nM, 18 hr, relative to control) is on record as “neither ATP levels nor cell viability (FIG. 5b) were significantly affected”. Besides, in [6], the ATP levels entry is on record as “neither ATP levels nor cell viability (FIG. 5b) were significantly affected”. Also, in data set [7], the cell viability entry is recorded as “significant decreases in cell viability”. In addition, in [8], the ECAR entry was “very significant increase in ECAR” and the OCR result is reported as “did not display a significant change in OCR”. Moreover, the “intermediate- and large-conductance mitochondrial ion channel activity after repeated pre-treatment of rats” value in [9] was “significant increase”.

As for antimycin A [reference compound], in [10], the “initial slope of ATP synthesis following an ADP pulse” value is “significantly reduced” and the “maximal ATP levels” value is given as “significantly reduced”.
